Results taken from patent US10266550B2, “Bacterial topoisomerase I inhibitors with antibacterial activity” (The Florida International University Board of Trustees, priority 2016, dated 2019).
≈ marks a conversion by molar mass, not a printed value. Read-outs that look alike come from different tables or passages of the source.

Assays:
Human topoisomerase I = Human topoisomerase I (Homo sapiens (Human), UniProt P11387); experiment: Human topoisomerase I relaxation inhibition assay; format: biochemical; conditions: read-out: Topoisomerase inhibitory activity (IC50) Human topo I (type IB)
Human topoisomerase I, sequence (P11387 whole entry): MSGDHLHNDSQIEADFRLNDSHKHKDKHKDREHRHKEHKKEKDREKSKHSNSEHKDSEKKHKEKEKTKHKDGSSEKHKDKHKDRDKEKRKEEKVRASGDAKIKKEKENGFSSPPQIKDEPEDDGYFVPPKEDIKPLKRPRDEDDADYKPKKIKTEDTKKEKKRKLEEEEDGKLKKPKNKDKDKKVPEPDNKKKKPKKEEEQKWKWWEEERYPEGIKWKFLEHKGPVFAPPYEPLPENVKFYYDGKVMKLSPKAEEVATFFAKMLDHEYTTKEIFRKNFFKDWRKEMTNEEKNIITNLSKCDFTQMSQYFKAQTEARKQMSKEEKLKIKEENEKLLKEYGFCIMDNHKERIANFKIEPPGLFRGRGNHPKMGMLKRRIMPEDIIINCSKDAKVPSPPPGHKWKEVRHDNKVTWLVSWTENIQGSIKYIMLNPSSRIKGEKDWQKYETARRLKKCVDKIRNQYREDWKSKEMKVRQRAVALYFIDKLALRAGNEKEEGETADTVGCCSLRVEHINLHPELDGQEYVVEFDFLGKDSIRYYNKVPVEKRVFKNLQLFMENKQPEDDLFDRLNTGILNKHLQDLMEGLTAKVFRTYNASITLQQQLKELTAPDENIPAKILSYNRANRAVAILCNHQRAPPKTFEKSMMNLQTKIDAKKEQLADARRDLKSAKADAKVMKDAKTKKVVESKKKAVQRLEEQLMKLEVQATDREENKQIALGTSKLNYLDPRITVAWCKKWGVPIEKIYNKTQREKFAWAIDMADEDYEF
Description: Human topoisomerase I relaxation assays were carried out with 0.5 U of enzyme in reaction buffer supplied by the manufacturer. The enzyme was mixed with the indicated concentration of compound dissolved before 200 ng of supercoiled pBAD/Thio plasmid DNA was added in the same buffer, for a final volume of 20 μL. Following incubation at 37° C. for 30 minutes, the reactions were terminated with a buffer containing 5% SDS, 0.25% bromophenol blue, and 25% glycerol, and analyzed by agarose gel electrophoresis.
Human topoisomerase I and topoisomerase IIα were purchased from TopoGen (Buena vista, CO, USA).

M. tuberculosis (H37Rv) = experiment: MIC, microplate Alamar blue assay (MABA); format: cell-based
E. coli DNA gyrase = E. coli DNA gyrase (Escherichia coli (strain K12), UniProt P0AES4+P0AES6); experiment: DNA gyrase supercoiling inhibition assay; format: biochemical; conditions: for IC50: supercoiling of relaxed DNA, read-out: Topoisomerase inhibitory activity (IC50) E. coli DNA gyrase (type IIA)
Description: (§1) Recombinant E. coli topoisomerase I and gyrase expressed in E. coli were purified as described previously.
The samples were incubated at 37° C. for 30 minutes before being terminated by the addition of a buffer containing 5% SDS, 0.25% bromophenol blue, and 25% glycerol. The reactions were then analyzed by agarose gel electrophoresis.

[1] = test system: E. coli Imp4213 (BAS3023); experiment: MIC, microdilution in Mueller-Hinton Broth; format: cell-based; conditions: for MIC: Escherichia coli, read-out: Whole cell based antibacterial activity (MIC) E. coli Imp4213 (BAS3023), membrane permeable imp mutant
E. coli (MG1655) WT = experiment: MIC, microdilution in Mueller-Hinton Broth; conditions: wild type, read-out: Whole cell based antibacterial activity (MIC) E. coli (MG1655) WT
Vero cells = experiment: Vero cell cytotoxicity assay; format: cell-based; conditions: Chlorocebus sabaeus, Vero; cytotoxicity
Description: (§2) MICs of compounds against M. tuberculosis were determined by a modified microplate Alamar blue assay (MABA). Vero cell cytotoxicity assay was performed as previously described.

Human topoisomerase IIα = Human topoisomerase IIα (Homo sapiens (Human), UniProt P11388); experiment: Human topoisomerase IIα decatenation inhibition assay; format: biochemical; conditions: kDNA decatenation; read-out: Topoisomerase inhibitory activity (IC50) Human topo IIα (type IIA)
Human topoisomerase IIα, sequence (P11388 whole entry): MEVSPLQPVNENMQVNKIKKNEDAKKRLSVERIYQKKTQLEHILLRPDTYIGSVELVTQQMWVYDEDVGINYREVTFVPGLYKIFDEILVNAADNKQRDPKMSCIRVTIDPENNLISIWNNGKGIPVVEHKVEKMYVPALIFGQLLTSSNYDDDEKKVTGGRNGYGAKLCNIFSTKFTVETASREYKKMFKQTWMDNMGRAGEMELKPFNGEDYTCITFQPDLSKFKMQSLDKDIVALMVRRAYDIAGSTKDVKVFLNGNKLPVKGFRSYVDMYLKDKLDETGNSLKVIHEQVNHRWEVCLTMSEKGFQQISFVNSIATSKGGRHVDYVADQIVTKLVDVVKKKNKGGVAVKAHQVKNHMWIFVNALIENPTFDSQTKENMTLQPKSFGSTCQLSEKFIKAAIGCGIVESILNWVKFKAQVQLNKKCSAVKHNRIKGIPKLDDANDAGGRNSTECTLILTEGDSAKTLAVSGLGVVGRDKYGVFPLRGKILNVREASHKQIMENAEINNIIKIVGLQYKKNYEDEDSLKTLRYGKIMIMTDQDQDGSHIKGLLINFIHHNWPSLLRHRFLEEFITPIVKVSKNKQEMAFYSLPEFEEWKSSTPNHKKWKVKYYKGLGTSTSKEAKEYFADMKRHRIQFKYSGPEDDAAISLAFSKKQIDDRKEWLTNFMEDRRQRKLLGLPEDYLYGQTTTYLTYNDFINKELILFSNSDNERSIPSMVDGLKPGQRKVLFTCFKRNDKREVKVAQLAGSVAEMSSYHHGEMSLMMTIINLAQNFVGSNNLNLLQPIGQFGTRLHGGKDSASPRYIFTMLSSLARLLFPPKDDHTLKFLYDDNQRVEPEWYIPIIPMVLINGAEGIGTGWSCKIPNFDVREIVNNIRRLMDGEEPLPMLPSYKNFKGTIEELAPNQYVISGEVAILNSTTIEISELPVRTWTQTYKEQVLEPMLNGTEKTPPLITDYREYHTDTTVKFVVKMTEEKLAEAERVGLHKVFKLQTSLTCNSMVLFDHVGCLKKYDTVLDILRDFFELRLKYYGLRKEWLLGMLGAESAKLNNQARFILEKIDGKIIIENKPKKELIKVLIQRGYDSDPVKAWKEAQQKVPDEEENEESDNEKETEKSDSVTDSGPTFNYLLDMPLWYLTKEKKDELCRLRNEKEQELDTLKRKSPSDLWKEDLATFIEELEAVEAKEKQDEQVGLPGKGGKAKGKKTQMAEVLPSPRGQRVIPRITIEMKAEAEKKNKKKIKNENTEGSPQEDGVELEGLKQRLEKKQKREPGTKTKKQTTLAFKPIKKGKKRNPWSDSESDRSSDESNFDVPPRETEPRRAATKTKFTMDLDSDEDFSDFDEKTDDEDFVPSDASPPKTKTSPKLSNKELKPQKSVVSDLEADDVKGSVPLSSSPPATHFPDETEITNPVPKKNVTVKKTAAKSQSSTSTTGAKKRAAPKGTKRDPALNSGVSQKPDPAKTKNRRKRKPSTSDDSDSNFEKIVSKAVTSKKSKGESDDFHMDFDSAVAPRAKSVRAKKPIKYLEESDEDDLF
Description: Human topoisomerase I and topoisomerase IIα were purchased from TopoGen (Buena vista, CO, USA). […] The reactions were then analyzed by electrophoresis in 1% agarose gels containing […] ethidium bromide before being photographed under UV light.

[2] = Vero cell cytotoxicity assay; format: cell-based
Description: as §2

E. coli topoisomerase I = E. coli topoisomerase I (Escherichia coli (strain K12), UniProt P06612); experiment: biochemical; format: biochemical; conditions: for PIC50 (pIC50 = −log IC50): experimental, converted from IC50; for IC50: relaxation of supercoiled plasmid DNA
E. coli topoisomerase I, sequence (P06612 whole entry, looked up): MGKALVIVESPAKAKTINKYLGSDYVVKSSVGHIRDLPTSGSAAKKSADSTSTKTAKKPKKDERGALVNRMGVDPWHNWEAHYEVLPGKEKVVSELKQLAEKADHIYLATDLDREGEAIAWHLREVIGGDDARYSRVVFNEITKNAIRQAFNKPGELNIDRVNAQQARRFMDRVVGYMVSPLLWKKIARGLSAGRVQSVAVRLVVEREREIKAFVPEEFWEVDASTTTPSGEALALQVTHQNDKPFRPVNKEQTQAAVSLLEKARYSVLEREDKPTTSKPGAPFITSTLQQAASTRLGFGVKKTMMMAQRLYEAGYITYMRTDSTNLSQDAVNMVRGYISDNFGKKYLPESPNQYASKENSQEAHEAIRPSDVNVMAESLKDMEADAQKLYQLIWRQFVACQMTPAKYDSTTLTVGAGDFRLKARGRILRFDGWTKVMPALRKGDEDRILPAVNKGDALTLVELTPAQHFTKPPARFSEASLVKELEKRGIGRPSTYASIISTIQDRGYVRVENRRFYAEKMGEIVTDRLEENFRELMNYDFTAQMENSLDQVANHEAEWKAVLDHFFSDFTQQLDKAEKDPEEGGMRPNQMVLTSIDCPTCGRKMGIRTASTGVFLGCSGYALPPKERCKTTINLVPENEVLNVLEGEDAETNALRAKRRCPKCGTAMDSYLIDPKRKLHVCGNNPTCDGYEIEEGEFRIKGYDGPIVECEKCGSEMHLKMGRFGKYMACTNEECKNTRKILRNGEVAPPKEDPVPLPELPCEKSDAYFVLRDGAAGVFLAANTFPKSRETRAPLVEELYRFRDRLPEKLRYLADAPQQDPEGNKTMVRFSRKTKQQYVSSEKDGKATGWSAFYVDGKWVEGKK
Description: as §1
E. coli Topoisomerase I Relaxation Activity Inhibition Assay
The relaxation activity of E. coli topoisomerase I was assayed in a buffer containing 10 mM Tris-HCl, pH 8.0, 50 mM NaCl, 0.1 mg/mL gelatin, and 0.5 mM MgCl2. Half microliter from the appropriate stock solutions of compounds dissolved in the solvent (DMSO) or the solvent alone (control) was mixed with 9.5 μL of the reaction buffer containing 10 ng of enzyme before the addition of 10 μL of reaction buffer containing 200 ng of supercoiled pBAD/Thio plasmid DNA purified by cesium chloride gradient as substrate. Following incubation at 37° C. for 30 min, the reactions were terminated by the addition of 4 μL of a stop buffer (50% glycerol, 50 mM EDTA, and 0.5% (v/v) bromophenol blue), and analyzed by agarose gel electrophoresis. The gels were stained in ethidium bromide and photographed under UV light.

[3] = test system: all the test bacteria strains; experiment: Whole cell antibacterial activity across all test strains; format: cell-based; conditions: range over strains; read-out: MICs against all the test bacteria strains
[4] = test system: MRSA (staphylococcus aureus BAA44); experiment: MIC against MRSA; format: cell-based
[5] = target: Mycobacterium tuberculosis topoisomerase I (Mycobacterium tuberculosis (strain ATCC 25618 / H37Rv), UniProt P9WG49); experiment: Mycobacterium tuberculosis topoisomerase I inhibition; format: biochemical; conditions: Table 2; read-out: IC50 against Mycobacterium tuberculosis topoisomerase I
[6] = test system: mycobacterium smegmatis in biofilm; experiment: Biofilm viability by resazurin assay; format: cell-based
Description: Viability of the mycobacteria mycobacterium smegmatis in biofilm was measured by the resazurin assay.
The resazurin assay is a quick method using the resazurin dye as a bacterial respiration indicator to assay the antibacterial activity of various compounds used against bacterial biofilm growth. Such assay is well-known in the art. […] The biofilm was quantified indirectly by measuring the fluorescent, water-soluble resorufin product produced when resazurin is reduced by reactions associated with respiration.

[7] = 1H NMR experiments
bacterial strains = experiment: Whole cell antibacterial activity after storage; format: cell-based; conditions: after 4 weeks of storage
[8] = test system: several cancer cell lines; conditions: literature [32]; read-out: IC50 against several cancer cell lines; cited from earlier work
[9] = Mycobacterium tuberculosis, H37RV, MABA, read-out: Whole cell based antibacterial activity (MIC) M. tuberculosis (H37Rv)
[10] = Topoisomerase inhibitory activity (IC50) E. coli topo I (type IA)

| Structure (SMILES) | IC50 (Human topoisomerase I) | IC50 (E. coli DNA gyrase) | IC50 (Vero cells) | IC50 (Human topoisomerase IIα) | MIC (M. tuberculosis (H37Rv); [9]) | MIC [1] | MIC (E. coli (MG1655) WT; Escherichia coli, MG1655) | selectivity ratio ([2]; monkey) | PIC50 (pIC50 = −log IC50) (E. coli topoisomerase I) | IC50 (E. coli topoisomerase I; [10]) | further results |
| --- | --- | --- | --- | --- | --- | --- | --- | --- | --- | --- | --- |
| Nc1ccc2c(c1)Oc1c(NCCN3CCOCC3)c(F)cc3c(=O)c(C(=O)O)cn-2c13 [Compound 11h, 9-Amino-5-fluoro-6-((2-morpholinoethyl)amino)-3-oxo-3H-pyrido[3,2,1-kl]phenoxazine-2-carboxylic acid] | 7.8 to 15.6 µM | 15.6 to 31.2 µM | 43 µM |  |  |  |  |  |  |  | MIC (M. tuberculosis (H37Rv); MABA, read-out: Whole cell based antibacterial activity (MIC) M. tuberculosis (H37Rv)): 21.6 µM (≈ 9.51 µg/mL); Whole cell based antibacterial activity (MIC) E. coli Imp4213 (BAS3023) ([1]; membrane permeable imp mutant): 0.78 µM; MIC (E. coli (MG1655) WT): >200 µM |
| CN1CCN(c2c(F)cc3c(=O)c(C(=O)O)cn4c3c2Oc2cc([N+](=O)[O-])ccc2-4)CC1 [Compound 10a, 5-Fluoro-6-(4-methylpiperazin-1-yl)-9-nitro-3-oxo-3H-pyrido[3,2,1-kl]phenoxazine-2-carboxylic acid] | 31.2 µM |  | 95 µM | 250 to 500 µM | 19 µM (≈ 8.37 µg/mL) | 1.56 µM (≈ 0.687 µg/mL) | 100 µM (≈ 44 µg/mL) | 5 | 5.71 |  |  |
| CN1CCN(c2c(F)cc3c(=O)c(C(=O)O)cn4c3c2Oc2cc(N)ccc2-4)CC1 [Compound 11a, 9-Amino-5-fluoro-6-(4-methylpiperazin-1-yl)-3-oxo-3H-pyrido[3,2,1-kl]phenoxazine-2-carboxylic acid] | 15.6 µM |  |  |  |  |  | 6.25 µM (≈ 2.57 µg/mL) |  | 6.32 | 0.24 to 0.97 µM | MIC [3]: 0.78 to 7.6 µM (≈ 0.32 to 3.12 µg/mL) |
| Nc1ccc2c(c1)Oc1c(N3CCOCC3)c(F)cc3c(=O)c(C(=O)O)cn-2c13 [Compound 11d, 9-Amino-5-fluoro-6-morpholino-3-oxo-3H-pyrido[3,2,1-kl]phenoxazine-2-carboxylic acid] | 15.6 µM | 7.8 µM | 24.7 µM | 15.6 µM | 3.5 µM (≈ 1.39 µg/mL) | 0.19 to 0.39 µM (≈ 0.0755 to 0.155 µg/mL) | > 200 µM | 7.1 | 6.01 |  | MIC [4]: 3 µM (≈ 1.19 µg/mL); IC50 [5]: 0.48 µM |
| Nc1ccc2c(c1)Oc1c(N3CCC(N4CCCCC4)CC3)c(F)cc3c(=O)c(C(=O)O)cn-2c13 [Compound 11g, 6-([1,4′-Bipiperidin]-1′-yl)-9-amino-5-fluoro-3-oxo-3H-pyrido[3,2,1-kl]phenoxazine-2-carboxylic acid] | 3.9 µM | 15.6 µM | 24.4 µM | 1.95 to 3.9 µM | 2.5 µM (≈ 1.2 µg/mL) | 0.39 to 0.78 µM (≈ 0.187 to 0.373 µg/mL) | > 200 µM | 9.8 | 6.31 | 0.24 to 0.97 µM | concentration that abolishes 90% of viability in biofilm [6]: 1.5 to 3 µM; MIC [4]: 12.5 µM (≈ 5.98 µg/mL); MIC (M. tuberculosis (H37Rv); Mycobacterium tuberculosis strain H37Rv, Table 2, read-out: MIC (TB)): 2.5 µM (≈ 1.2 µg/mL); selectivity ratio ([2]; African green monkey): 9.8; IC50 (E. coli topoisomerase I; read-out: Topoisomerase inhibitory activity (IC50) E. coli topo I (type IA)): 0.48 µM; IC50 [5]: 0.24 µM |
| O=C(O)c1cn(C2CC2)c2cc(N3CCNCC3)c(F)cc2c1=O [ciprofloxacin, reference compound] |  |  |  |  |  |  |  |  |  |  | concentration that abolishes 90% of viability in biofilm [6]: ≥ 24 µM |
| Nc1ccc2c(c1)Oc1c(F)c(F)cc3c(=O)c(C(=O)O)cn-2c13 [Compound 1, 9-Amino-5,6-difluoro-3-oxo-3H-pyrido[3,2,1-kl]phenoxazine-2-carboxylic acid] | 31.3 µM | > 125 µM |  | > 500 µM |  | 0.78 to 1.56 µM (≈ 0.258 to 0.515 µg/mL) | > 200 µM |  | 5.71 |  | precipitation in d6-DMSO solvent [7]: could be easily precipitated out; loss of whole cell antibacterial activity after storage (bacterial strains): 2-4 fold |
| O=C(O)c1cn2c3c(c(F)c(F)cc3c1=O)Oc1cc([N+](=O)[O-])c(Cl)cc1-2 [Compound 7e, 10-Chloro-5,6-difluoro-9-nitro-3-oxo-3H-pyrido[3,2,1-kl]phenoxazine-2-carboxylic acid] | 31.2 µM | 62.5 µM | > 127 µM | 125 µM | 29 µM (≈ 11.4 µg/mL) | 0.39 µM (≈ 0.154 µg/mL) | 50 µM (≈ 19.7 µg/mL) | > 4.4 | 4.51 |  | selectivity toward topoisomerase I over DNA gyrase (E. coli DNA gyrase): 2 fold |
| N[C@H]1CCN(c2c(F)cc3c(=O)c(C(=O)O)cn4c3c2Oc2cc([N+](=O)[O-])ccc2-4)C1 [Compound 16, (S)-6-(3-aminopyrrolidin-1-yl)-5-fluoro-9-nitro-3-oxo-3H-pyrido[3,2,1-kl]phenoxazine-2-carboxylic acid] | 7.8 µM | 3.9 µM | > 50 µM |  | > 50 µM | 1.56 µM (≈ 0.665 µg/mL) | > 200 µM |  | 6.32 | 0.24 to 0.97 µM |  |
| N[C@H]1CCN(c2c(F)cc3c(=O)c(C(=O)O)cn4c3c2Oc2ccccc2-4)C1 [Compound A-62176] |  |  |  |  |  |  |  |  |  |  | IC50 [8]: 0.87 to 4.34 µM |
